Read-outs that look alike come from different tables or passages of the source.
Columns and labels:
[1] = test system: Botrytis cinerea; assay: Fungicidal activity against Botrytis cinerea, mycelial growth inhibition on PDA plate; format: cell-based; conditions: for inhibition at 25 µg/mL / activities against Botrytis cinerea (growth inhibition rating): 25 mg/L; for inhibition at 25 µg/mL: read-out: activities against Botrytis cinerea (growth inhibition rating); for inhibition at 0.1562 µg/mL: 0.1562 mg/L; for inhibition at 0.3125 µg/mL: 0.3125 mg/L; for inhibition at 0.625 µg/mL: 0.625 mg/L; for inhibition at 1.255 µg/mL: 1.255 mg/L
Protocol: (§1) Bioassay method: Stock solution of every test compound was prepared in an appropriate solvent such as N,N-dimethylformamide (DMF), and then diluted to the required test concentrations with sterile water containing 0.1% Tween 80; Pipetted 3 mL of test solution to 27 mL of potato dextrose agar (PDA) medium at 45° C. and poured into a Petri dish to prepare a plate after shaking thoroughly; 6 mm of diameter of fungi cake from the edge of 7-day-old […] colony was inoculated on the central of the plate, wherein mycelium facing down, and cultured in the culture tank at 28° C. The diameter of fungi spread was calculated 4 days later using the control group tested with the diluent only. Test was run 4 times. Data were subjected to EXCEL statistical software analysis and the growth inhibition of the tested compound was calculated according to the corresponding control, the activity was rated on the basis of percentage of growth inhibition using the following rating system: A, inhibition (%)>90; B, 90≧inhibition (%)>70; C, 70≧inhibition (%)>50; D, inhibition (%)≦50.
Fungicidal activities against Botrytis cinerea of compounds represented by the general formula (I) were evaluated with the corresponding method in Example 18, and some of the test results are shown in Table 6 to Table 8.

[2] = test system: Sclerotinia sclerotiorum; assay: Fungicidal activity against Sclerotinia sclerotiorum, mycelial growth inhibition on PDA plate; format: cell-based; conditions: for inhibition at 25 µg/mL / activities against Sclerotinia sclerotiorum (growth inhibition rating): 25 mg/L; for inhibition at 25 µg/mL: read-out: activities against Sclerotinia sclerotiorum (growth inhibition rating); for inhibition at 0.1562 µg/mL: 0.1562 mg/L; for inhibition at 0.3125 µg/mL: 0.3125 mg/L; for inhibition at 0.625 µg/mL: 0.625 mg/L; for inhibition at 1.255 µg/mL: 1.255 mg/L
Protocol: as §1

[3] = test system: Aphis fabae; assay: Insecticidal activity against Aphis fabae, dipping of horsebean seedlings; format: in vivo; conditions: 24 h; for mortality at 500 µg/mL: read-out: activities against Aphis fabae (mortality rating)
Protocol: Bioassay method: Stock solution of every test compound was prepared in an appropriate solvent such as N,N-dimethylformamide, and a small amount of Tween 80 was added as emulsification agent, then diluted to the required test concentrations with distilled water, using the control group tested with distilled water only. More than 20 adults of Aphis fabae were transferred to newly unearthed horsebean seedlings and 24 hr later, horsebean seedlings with Aphis fabae were dipped in the test solution for 5 s, then allowed to dry with filter paper, transplanted to the absorbent sponge and covered with a glass tube, then kept in a room for normal cultivation. Each assay contained three replications, and results were averaged. Mortality was assessed 24 hr after the treatment. The activity was rated to A, B, C or D according to the rating system in Example 22.

[4] = test system: Alternaria alternata; assay: Fungicidal activity against Alternaria alternata, mycelial growth inhibition on PDA plate; format: cell-based
Protocol: as §1
Fungicidal activities against Alternaria alternata of compounds represented by the general formula (I) were evaluated with the corresponding method in Example 18, and some of the test results are shown in Table 9 to Table 10.

[5] = Sclerotinia sclerotiorum, 2.5 mg/L, Table 4, read-out: activities against Sclerotinia sclerotiorum (growth inhibition)
[6] = Sclerotinia sclerotiorum, 5 mg/L, Table 4, read-out: activities against Sclerotinia sclerotiorum (growth inhibition)
[7] = Sclerotinia sclerotiorum, 10 mg/L, Table 4, read-out: activities against Sclerotinia sclerotiorum (growth inhibition)
[8] = Botrytis cinerea, Table 8, read-out: activities against Botrytis cinerea (growth inhibition)
[9] = Botrytis cinerea, 2.5 mg/L, Table 7, read-out: activities against Botrytis cinerea (growth inhibition)
[10] = Botrytis cinerea, 2.5 mg/L, Table 8, read-out: activities against Botrytis cinerea (growth inhibition)
[11] = Botrytis cinerea, 5 mg/L, Table 7, read-out: activities against Botrytis cinerea (growth inhibition)
[12] = Botrytis cinerea, 5 mg/L, Table 8, read-out: activities against Botrytis cinerea (growth inhibition)
[13] = Botrytis cinerea, 10 mg/L, Table 7, read-out: activities against Botrytis cinerea (growth inhibition)
[14] = Sclerotinia sclerotiorum, Table 5, read-out: activities against Sclerotinia sclerotiorum (growth inhibition)
[15] = Sclerotinia sclerotiorum, 2.5 mg/L, Table 5, read-out: activities against Sclerotinia sclerotiorum (growth inhibition)
[16] = Sclerotinia sclerotiorum, 5 mg/L, Table 5, read-out: activities against Sclerotinia sclerotiorum (growth inhibition)
[17] = read-out: activities against Aphis fabae (mortality)

Structure (SMILES): CCN(Cc1cnc(Br)s1)c1nc(OC)ccc1[N+](=O)[O-] [Compound 33, 6-methoxy-N-((2-bromothiazole-5-yl)methyl)-N-ethyl-3-nitropyridine-2-amine]
- inhibition at 25 µg/mL ([1]; Botrytis cinerea): 70 to 90%
- inhibition at 2.5 µg/mL [2, 5]: 91%
- inhibition at 5 µg/mL [2, 6]: 100%
- inhibition at 10 µg/mL [2, 7]: 100%
- inhibition at 25 µg/mL ([2]; Sclerotinia sclerotiorum): > 90%

Structure (SMILES): COc1nc(NCc2cnc(Cl)s2)ccc1[N+](=O)[O-] [Compound 47]
- activities against Botrytis cinerea (growth inhibition rating) [1]: C (C, 70≧inhibition (%)>50)

Structure (SMILES): CCOc1nc(N(CC)Cc2cnc(Cl)s2)ccc1[N+](=O)[O-] [Compound 45]
- mortality at 500 µg/mL [3]: 70 to 90%

Structure (SMILES): CCCN(Cc1cnc(Cl)s1)c1nc(OCC)ccc1[N+](=O)[O-] [Compound 09]
- activities against Botrytis cinerea (growth inhibition) ([1]; 2.5 mg/L, Table 7): 52%
- activities against Botrytis cinerea (growth inhibition) ([1]; 5 mg/L, Table 7): 65%
- activities against Botrytis cinerea (growth inhibition) ([1]; 10 mg/L, Table 7): 65%
- activities against Botrytis cinerea (growth inhibition rating) [1]: A (A, inhibition (%)>90)
- activities against Sclerotinia sclerotiorum (growth inhibition rating) [2]: A (A, inhibition (%)>90)

Structure (SMILES): COc1ccc([N+](=O)[O-])c(N(C)Cc2cnc(Cl)s2)n1 [Compound 17]
- activities against Alternaria alternata (growth inhibition rating) ([4]; 25 mg/L): B (B, 90≧inhibition (%)>70)

Structure (SMILES): CCOc1ccc([N+](=O)[O-])c(N(CC)Cc2cnc(Cl)s2)n1 [Compound 04, 6-ethoxy-N-((2-chlorothiazole-5-yl)methyl)-N-ethyl-3-nitropyridine-2-amine]
- inhibition at 0.1562 µg/mL [1, 8]: 63%
- inhibition at 0.3125 µg/mL [1, 8]: 76%
- inhibition at 0.625 µg/mL [1, 8]: 81%
- inhibition at 1.255 µg/mL [1, 8]: 82%
- inhibition at 2.5 µg/mL [1, 9]: 70%
- inhibition at 2.5 µg/mL [1, 10]: 87%
- inhibition at 5 µg/mL [1, 11]: 78%
- inhibition at 5 µg/mL [1, 12]: 90%
- inhibition at 10 µg/mL [1, 13]: 94%
- inhibition at 25 µg/mL ([1]; Botrytis cinerea): > 90%
- inhibition at 0.1562 µg/mL [2, 14]: 53%
- inhibition at 0.3125 µg/mL [2, 14]: 59%
- inhibition at 0.625 µg/mL [2, 14]: 61%
- inhibition at 1.255 µg/mL [2, 14]: 65%
- inhibition at 2.5 µg/mL [2, 5]: 75%
- inhibition at 2.5 µg/mL [2, 15]: 70%
- inhibition at 5 µg/mL [2, 6]: 90%
- inhibition at 5 µg/mL [2, 16]: 75%
- inhibition at 10 µg/mL [2, 7]: 100%
- inhibition at 25 µg/mL ([2]; Sclerotinia sclerotiorum): > 90%
- mortality at 500 µg/mL [3]: > 90%
- mortality at 6.25 µg/mL [3, 17]: 0%
- mortality at 25 µg/mL [3, 17]: 26.7%
- mortality at 100 µg/mL [3, 17]: 46.7%
- inhibition at 2.5 µg/mL ([4]; Alternaria alternata, 2.5 mg/L, read-out: activities against Alternaria alternata (growth inhibition)): 55%
- inhibition at 5 µg/mL ([4]; Alternaria alternata, 5 mg/L, read-out: activities against Alternaria alternata (growth inhibition)): 60%
- inhibition at 10 µg/mL ([4]; Alternaria alternata, 10 mg/L, read-out: activities against Alternaria alternata (growth inhibition)): 70%
- inhibition at 25 µg/mL ([4]; Alternaria alternata, 25 mg/L, read-out: activities against Alternaria alternata (growth inhibition rating)): 70 to 90%

Structure (SMILES): CCN(Cc1cnc(Cl)s1)c1nc(Cl)ccc1Cl
- melting point: 95.8 to 96.8 °C

Structure (SMILES): CCCOc1ccc([N+](=O)[O-])c(N(CC)Cc2cnc(Cl)s2)n1 [Compound 07]
- activities against Botrytis cinerea (growth inhibition) ([1]; 2.5 mg/L, Table 7): 44%
- activities against Botrytis cinerea (growth inhibition) ([1]; 5 mg/L, Table 7): 52%
- activities against Botrytis cinerea (growth inhibition) ([1]; 10 mg/L, Table 7): 68%
- activities against Botrytis cinerea (growth inhibition rating) [1]: B (B, 90≧inhibition (%)>70)
- activities against Sclerotinia sclerotiorum (growth inhibition rating) [2]: B (B, 90≧inhibition (%)>70)
- activities against Alternaria alternata (growth inhibition) ([4]; 2.5 mg/L): 20%
- activities against Alternaria alternata (growth inhibition) ([4]; 5 mg/L): 36%
- activities against Alternaria alternata (growth inhibition) ([4]; 10 mg/L): 45%
- activities against Alternaria alternata (growth inhibition rating) ([4]; 25 mg/L): C (C, 70≧inhibition (%)>50)

Structure (SMILES): CCN(Cc1cnc(Cl)s1)c1nc(N(C)C)ccc1[N+](=O)[O-] [Compound 28, 6-dimethylamino-N-((2-chlorothiazole-5-yl)methyl)-N-ethyl-3-nitropyridine-2-amine]
- inhibition at 1.25 µg/mL ([1]; Botrytis cinerea, 1.25 mg/L, Table 7, read-out: activities against Botrytis cinerea (growth inhibition)): 79%
- inhibition at 2.5 µg/mL [1, 9]: 86%
- inhibition at 5 µg/mL [1, 11]: 91%
- inhibition at 10 µg/mL [1, 13]: 96%
- inhibition at 25 µg/mL ([1]; Botrytis cinerea): > 90%
- inhibition at 1.25 µg/mL ([2]; Sclerotinia sclerotiorum, 1.25 mg/L, Table 4, read-out: activities against Sclerotinia sclerotiorum (growth inhibition)): 42%
- inhibition at 2.5 µg/mL [2, 5]: 64%
- inhibition at 5 µg/mL [2, 6]: 82%
- inhibition at 10 µg/mL [2, 7]: 90%
- inhibition at 25 µg/mL ([2]; Sclerotinia sclerotiorum): > 90%
- melting point: 74.6 to 78.4 °C

Structure (SMILES): COC(=O)NC(=S)Nc1ccccc1NC(=S)NC(=O)OC [Thiophanate-Methyl, reference compound]
- inhibition at 0.1562 µg/mL [1, 8]: 18%
- inhibition at 0.3125 µg/mL [1, 8]: 75%
- inhibition at 0.625 µg/mL [1, 8]: 88%
- inhibition at 1.255 µg/mL [1, 8]: 93%
- inhibition at 2.5 µg/mL [1, 10]: 98%
- inhibition at 5 µg/mL [1, 12]: 100%
- inhibition at 0.1562 µg/mL [2, 14]: 33%
- inhibition at 0.3125 µg/mL [2, 14]: 47%
- inhibition at 0.625 µg/mL [2, 14]: 63%
- inhibition at 1.255 µg/mL [2, 14]: 72%
- inhibition at 2.5 µg/mL [2, 15]: 77%
- inhibition at 5 µg/mL [2, 16]: 85%

Structure (SMILES): CCOc1ccc([N+](=O)[O-])c(N(Cc2cnc(Cl)s2)C(C)C)n1 [Compound 31]
- activities against Botrytis cinerea (growth inhibition rating) [1]: B (B, 90≧inhibition (%)>70)

Structure (SMILES): CCCOc1ccc([N+](=O)[O-])c(N(CCC)Cc2cnc(Cl)s2)n1 [Compound 10]
- activities against Botrytis cinerea (growth inhibition rating) [1]: B (B, 90≧inhibition (%)>70)
- activities against Sclerotinia sclerotiorum (growth inhibition rating) [2]: B (B, 90≧inhibition (%)>70)

Structure (SMILES): CCN(Cc1sc(C)nc1C)c1nc(OC)ccc1[N+](=O)[O-] [Compound 44]
- activities against Botrytis cinerea (growth inhibition rating) [1]: A (A, inhibition (%)>90)
- activities against Sclerotinia sclerotiorum (growth inhibition) ([2]; 2.5 mg/L, Table 4): 70%
- activities against Sclerotinia sclerotiorum (growth inhibition) ([2]; 5 mg/L, Table 4): 75%
- activities against Sclerotinia sclerotiorum (growth inhibition) ([2]; 10 mg/L, Table 4): 87%
- activities against Sclerotinia sclerotiorum (growth inhibition rating) [2]: A (A, inhibition (%)>90)
- activities against Alternaria alternata (growth inhibition rating) ([4]; 25 mg/L): B (B, 90≧inhibition (%)>70)

Structure (SMILES): CCNc1ccc([N+](=O)[O-])c(N(CC)Cc2cnc(Cl)s2)n1 [Compound 24]
- activities against Botrytis cinerea (growth inhibition rating) [1]: B (B, 90≧inhibition (%)>70)

Structure (SMILES): CCN(Cc1cnc(Cl)s1)c1nc(Cl)ccc1[N+](=O)[O-]
- melting point: 71.4 to 74.1 °C

Structure (SMILES): CCCN(Cc1cnc(Cl)s1)c1nc(OC)ccc1[N+](=O)[O-] [Compound 08]
- activities against Botrytis cinerea (growth inhibition) ([1]; 2.5 mg/L, Table 7): 68%
- activities against Botrytis cinerea (growth inhibition) ([1]; 5 mg/L, Table 7): 70%
- activities against Botrytis cinerea (growth inhibition) ([1]; 10 mg/L, Table 7): 70%
- activities against Botrytis cinerea (growth inhibition rating) [1]: A (A, inhibition (%)>90)
- activities against Sclerotinia sclerotiorum (growth inhibition rating) [2]: A (A, inhibition (%)>90)
- activities against Alternaria alternata (growth inhibition) ([4]; 2.5 mg/L): 45%
- activities against Alternaria alternata (growth inhibition) ([4]; 5 mg/L): 48%
- activities against Alternaria alternata (growth inhibition) ([4]; 10 mg/L): 60%
- activities against Alternaria alternata (growth inhibition rating) ([4]; 25 mg/L): C (C, 70≧inhibition (%)>50)

— patent US9386769B2 (HUNAN RESEARCH INSTITUTE OF CHEMICAL INDUSTRY CO., LTD., priority 2011, dated 2016)
